Results reported in ChEMBL document CHEMBL5715942, “A novel histone deacetylase 8 (HDAC8)-specific inhibitor PCI-34051 induces apoptosis in T-cell lymphomas” (Leukemia, 2008).
The source made the active and inactive calls. No cut-off for these calls is given here.

Assays:
MCF7 [1] = test: Anti-proliferative activity against human MCF7 cells assessed as growth inhibition incubated for 72 hrs by alamar blue staining based fluorometric assay; format: functional
OVCAR-3 [2] = test: Anti-proliferative activity against human OVCAR-3 cells assessed as growth inhibition incubated for 72 hrs by alamar blue staining based fluorometric assay; format: functional
U-87 MG [3] = test: Anti-proliferative activity against human U87 cells assessed as growth inhibition incubated for 72 hrs by alamar blue staining based fluorometric assay; format: functional, U-87MG ATCC
HeLa = test: Anti-proliferative activity against human HeLa cells assessed as growth inhibition incubated for 72 hrs by alamar blue staining based fluorometric assay; format: functional
HCT-116 [4] = test: Anti-proliferative activity against human HCT-116 cells assessed as growth inhibition incubated for 72 hrs by alamar blue staining based fluorometric assay; format: functional
HCT-116 [5] = test: Induction of apoptosis in human HCT-116 cells incubated for 72 hrs by Annexin-V staining based flow cytometry analysis relative to control; format: functional
U-87 MG [6] = test: Induction of apoptosis in human U87 cells incubated for 72 hrs by Annexin-V staining based flow cytometry analysis relative to control; format: functional, U-87MG ATCC
MCF7 [7] = test: Induction of apoptosis in human MCF7 cells incubated for 72 hrs by Annexin-V staining based flow cytometry analysis relative to control; format: functional
OVCAR-3 [8] = test: Induction of apoptosis in human OVCAR-3 cells incubated for 72 hrs by Annexin-V staining based flow cytometry analysis relative to control; format: functional
Jurkat [9] = test: Anti-proliferative activity against human Jurkat cells assessed as growth inhibition incubated for 72 hrs by alamar blue staining based fluorometric assay; format: functional
HuT78 [10] = test: Anti-proliferative activity against human HuT78 cells assessed as growth inhibition incubated for 72 hrs by alamar blue staining based fluorometric assay; format: functional
MOLT-4 [11] = test: Anti-proliferative activity against human MOLT-4 cells assessed as growth inhibition incubated for 72 hrs by alamar blue staining based fluorometric assay; format: functional
SUD4 = test: Anti-proliferative activity against human SU-DHL-4 cells assessed as growth inhibition incubated for 72 hrs by alamar blue staining based fluorometric assay; format: functional
Ramos [12] = test: Anti-proliferative activity against human Ramos cells assessed as growth inhibition incubated for 72 hrs by alamar blue staining based fluorometric assay; format: functional
Raji [13] = test: Anti-proliferative activity against human Raji cells assessed as growth inhibition incubated for 72 hrs by alamar blue staining based fluorometric assay; format: functional
DB = test: Anti-proliferative activity against human DB cells assessed as growth inhibition incubated for 72 hrs by alamar blue staining based fluorometric assay; format: functional
THP-1 [14] = test: Anti-proliferative activity against human THP-1 cells assessed as growth inhibition incubated for 72 hrs by alamar blue staining based fluorometric assay; format: functional
RPMI-8226 [15] = test: Anti-proliferative activity against human RPMI-8226 cells assessed as growth inhibition incubated for 72 hrs by alamar blue staining based fluorometric assay; format: functional
Jurkat [16] = test: Induction of apoptosis in human Jurkat cells assessed as cell death at 5 uM incubated for 2 days by Annexin-V staining based flow cytometry analysis; format: functional; settings: time 2.0 day
HuT78 [17] = test: Induction of apoptosis in human HuT78 cells assessed as cell death at 5 uM incubated for 2 days by Annexin-V staining based flow cytometry analysis; format: functional; settings: time 2.0 day
CCRF-HSB-2 = test: Induction of apoptosis in human CCRF-HSB-2 cells assessed as cell death at 5 uM incubated for 2 days by Annexin-V staining based flow cytometry analysis; format: functional; settings: time 2.0 day
MOLT-4 [18] = test: Induction of apoptosis in human MOLT-4 cells assessed as cell death at 5 uM incubated for 2 days by Annexin-V staining based flow cytometry analysis; format: functional; settings: time 2.0 day
Ramos [19] = test: Induction of apoptosis in human Ramos cells assessed as cell death at 5 uM incubated for 2 days by Annexin-V staining based flow cytometry analysis; format: functional; settings: time 2.0 day
Raji [20] = test: Induction of apoptosis in human Raji cells assessed as cell death at 5 uM incubated for 2 days by Annexin-V staining based flow cytometry analysis; format: functional; settings: time 2.0 day
THP-1 [21] = test: Induction of apoptosis in human THP-1 cells assessed as cell death at 5 uM incubated for 2 days by Annexin-V staining based flow cytometry analysis; format: functional; settings: time 2.0 day
K562 = test: Induction of apoptosis in human K562 cells assessed as cell death at 5 uM incubated for 2 days by Annexin-V staining based flow cytometry analysis; format: functional; settings: time 2.0 day
RPMI-8226 [22] = test: Induction of apoptosis in human RPMI-8226 cells assessed as cell death at 5 uM incubated for 2 days by Annexin-V staining based flow cytometry analysis; format: functional; settings: time 2.0 day
Jurkat [23] = test: Induction of apoptosis in human Jurkat cells assessed as increased caspase-3 activity at 5 uM incubated for 12 to 48 hrs by colorimetric assay; format: functional, cell-based; settings: time 12-48 hrs
Jurkat [24] = test: Induction of apoptosis in human Jurkat cells assessed as PARP cleavage at 5 uM incubated for 48 hrs by Western blotting analysis; format: functional, cell-based
J.gamma1 [25] = test: Induction of apoptosis in human J.gamma1 cells assessed as abolished intracellular calcium level at 10 uM incubated for 5 mins in presence of Iodo-1 by spectrofluorimetric analysis; format: functional, cell-based
Jurkat [26] = test: Induction of apoptosis in human Jurkat cells assessed as increase in intracellular calcium level at 2.5 to 10 uM incubated for 5 mins in presence of Iodo-1 and Ionomycin by spectrofluorimetric analysis; format: functional, cell-based; settings: dose 2.5-10 µM
Jurkat [27] = test: Induction of apoptosis in human Jurkat cells assessed as increase in intracellular calcium level incubated for 5 mins in presence of Iodo-1 by spectrofluorimetric analysis; format: functional, cell-based; settings: dose 2.5-10 µM
J.gamma1 [28] = test: Induction of apoptosis in human J.gamma1 cells at 5 uM incubated for 24 hrs in presence of thapsigargin by Annexin-V staining based flow cytometry analysis relative to control; format: functional
Jurkat [29] = test: Downregulation of apoptosis in human Jurkat cells incubated for 24 hrs in presence of BAPTA-AM by Annexin-V staining based flow cytometry analysis; format: functional, cell-based; settings: dose 10.0 µM
Jurkat [30] = test: Induction of apoptosis in human Jurkat cells at 5 uM incubated for 24 hrs in presence of thapsigargin by Annexin-V staining based flow cytometry analysis relative to control; format: functional
Jurkat [31] = test: Downregulation of apoptosis in human Jurkat cells incubated for 2 days in presence of U73122 by Annexin-V staining based flow cytometry analysis; format: functional, cell-based; settings: dose 10.0 µM, time 2.0 day
J.gamma1 [32] = test: Induction of apoptosis in human J.gamma1 cells at 10 uM incubated for 2 days in presence of U-73122 by Annexin-V staining based flow cytometry analysis; format: functional, cell-based; settings: time 2.0 day
J.gamma1 [33] = test: Downregulation of apoptosis in human J.gamma1 cells at 5 uM incubated for 2 days by Annexin-V staining based flow cytometry analysis; format: functional, cell-based; settings: time 2.0 day
Jurkat [34] = test: Induction of apoptosis in human Jurkat cells assessed as decrease in intracellular calcium level at 10 uM in presence of Iodo-1 and U73122 by spectrofluorimetric analysis; format: functional, cell-based
Jurkat [35] = test: Induction of apoptosis in human Jurkat cells assessed as increase in cytosolic cytochrome c level at 10 uM incubated for 12 to 24 hrs by Western blotting analysis; format: functional, cell-based; settings: time lower 12.0 hrs, time upper […]
Jurkat [36] = test: Induction of apoptosis in human Jurkat cells assessed as decrease in FL-Bid at 5 uM incubated for 24 hrs by Western blotting analysis
J.gamma1 [37] = test: Downregulation of apoptosis in human J.gamma1 cells at 10 uM incubated for 24 hrs in presence of BAPTA-AM by Annexin-V staining based flow cytometry analysis

COc1ccc(Cn2ccc3ccc(C(=O)NO)cc32)cc1
GI50 (MCF7 [1]): > 20 µM | GI50 (OVCAR-3 [2]): 6 µM | GI50 (U-87 MG [3]): 17 µM | GI50 (HeLa): > 20 µM | GI50 (HCT-116 [4]): > 20 µM | Activity (HCT-116 [5]): 3% | Activity (U-87 MG [6]): 0% | Activity (MCF7 [7]): 0% | Activity (OVCAR-3 [8]): 15% | GI50 (Jurkat [9]): 2.4 µM | GI50 (HuT78 [10]): 4 µM | GI50 (MOLT-4 [11]): 3.3 µM | GI50 (SUD4): 8.2 µM | GI50 (Ramos [12]): 6.1 µM | GI50 (Raji [13]): 6.8 µM | GI50 (DB): 21.2 µM | GI50 (THP-1 [14]): 15.4 µM | GI50 (RPMI-8226 [15]): 28 µM | Activity (Jurkat [16]): Active | Activity (HuT78 [17]): Active | Activity (CCRF-HSB-2): Active | Activity (MOLT-4 [18]): Active | Activity (Ramos [19]): inactive | Activity (Raji [20]): inactive | Activity (THP-1 [21]): inactive | Activity (K562): inactive | Activity (RPMI-8226 [22]): inactive | Activity (Jurkat [23]): Active | Activity (Jurkat [24]): Active | Activity (J.gamma1 [25]): inactive | Activity (Jurkat [26]): Active | Activity (Jurkat [27]): Dose-Dependent Effect | Activity (J.gamma1 [28]): 2% | Activity (Jurkat [29]): Dose-Dependent Effect | Activity (Jurkat [30]): > 30% | Activity (Jurkat [31]): Dose-Dependent Effect | Activity (J.gamma1 [32]): inactive | Activity (J.gamma1 [33]): Active | Activity (Jurkat [34]): Active | Activity (Jurkat [35]): Active | Activity (Jurkat [36]): inactive | Activity (J.gamma1 [37]): inactive
